From PMC6050662, “Lycorine inhibits glioblastoma multiforme growth through EGFR suppression” (Journal of Experimental & Clinical Cancer Research : CR, 2018) come the findings set out here.

In this assay the target is T1, EGFR (Homo sapiens, UniProt P00533).
T1 construct: GST-tagged EGFR (696–1022), intracellular kinase domain
The assay is described as follows: SPR (Biacore T200, GST-EGFR captured by anti-GST on CM5 chip); also kinase assay (Kinase-Glo) IC50 about […]. The class given is binding. On the technique in general: Surface plasmon resonance follows binding to a sensor surface in real time, without labels.

Structures are written as SMILES.

T1 sequence (P00533 696-1022): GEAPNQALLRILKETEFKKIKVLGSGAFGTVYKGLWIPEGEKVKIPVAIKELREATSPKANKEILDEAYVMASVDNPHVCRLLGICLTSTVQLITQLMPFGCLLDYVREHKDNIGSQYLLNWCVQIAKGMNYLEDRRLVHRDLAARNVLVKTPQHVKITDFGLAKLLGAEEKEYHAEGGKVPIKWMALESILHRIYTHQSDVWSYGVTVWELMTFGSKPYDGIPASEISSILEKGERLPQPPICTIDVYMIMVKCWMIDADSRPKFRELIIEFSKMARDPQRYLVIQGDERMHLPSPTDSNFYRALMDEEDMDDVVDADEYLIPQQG

Regarding `O[C@H]1[C@H]2c3cc4c(cc3CN3CCC(=C[C@@H]1O)[C@H]23)OCO4` [Lycorine], the Kd (commonly the equilibrium constant for the complex coming apart) is about 3.6 µM.
